Measurements from patent US20050079152A1, “Methods of elicit, enhance and sustain immune responses against MHC class I-restricted epitopes, for prophylactic or therapeutic purposes” (priority 2003, published 2005).

Tested on: SSX241-49 epitope specific T cells
Experiment: SSX2 tetramer staining in immunized mice
Format: in vivo
Conditions: for SSX2 antigen specificity, % of the available CD8 T cells (tetramer): entrained with pCBP plasmid, amplified with peptide analogue; for cross-reactivity with T cells specific for the SSX241-49 epitope: mouse, in vivo
Excerpt: These analogues are cross-reactive with T cells specific for the SSX241-49 epitope. These examples illustrate that the entrain-and-amplify protocol can elicit a SSX2 antigen specificity that approaches 80% of the available CD8 T cells. The pCBP plasmid and principles of its design are disclosed in U.S. patent application Ser. No. 10/292,413 (Pub. No. 20030228634 A1) entitled EXPRESSION VECTORS ENCODING EPITOPES OF TARGET-ASSOCIATED ANTIGENS AND METHODS FOR THEIR DESIGN, which is hereby incorporated by reference in its entirety. Additional methodology, compositions, peptides, and peptide analogues are disclosed in U.S. Provisional Application No. ______, (Attorney Docket MANNK.038PR), filed on the same date as the instant application, entitled “SSX-2 PEPTIDE ANALOGS;” which is incorporated herein by reference in its entirety. Further methodology, compositions, peptides., and peptide analogues are disclosed in U.S. Provisional Application No. ______, (Attorney Docket MANNK.039PR), filed on the same date as the instant application, entitled “NY-ESO PEPTIDE ANALOGS;” which is incorporated herein by reference in its entirety.

| Substance | SSX2 antigen specificity, % of the available CD8 T cells (tetramer) | cross-reactivity with T cells specific for the SSX241-49 epitope |
| --- | --- | --- |
| SSX241-49 K41F: K41F peptide analogue of SSX2-derived epitope KASEKIFYV (SSX2 41-49) (FASEKIFYV) | ~80% | cross-reactive |
| K41Y: K41Y peptide analogue of SSX2-derived epitope KASEKIFYV (SSX2 41-49) (YASEKIFYV) | ~80% | cross-reactive |
